Measured values from US8426447B2, “Spiro-tricyclic ring compounds as beta-secretase modulators and methods of use” (Amgen Inc., priority 2008, dated 2013).
pIC50: −log10 of the molar value.

Columns and labels:
BACE1 [1] = molecular target: T1, BACE1 (Homo sapiens, UniProt P56817); test: In Vitro BACE Cell-based Assay (HEK cell assay): Aβ40 in conditioned medium of cells stably expressing Amyloid Precursor Protein, sandwich ELISA; details: read-out: HEK cell assay
In short: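 HEK cells stably expressing APP were treated 24 h with compound in 10-point dose response starting at 100 or 10 μM (0.1% DMSO). Secreted Aβ40 quantified by sandwich ELISA (pAb40 capture, biotinylated 6E10 detection, europium time-resolved fluorescence), with IC50 derived from percent inhibition versus concentration.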

BACE1 [2] = molecular target: T1, BACE1; test: In Vitro Enzymatic BACE FRET (Fluorescence Resonance Energy Transfer) Assay; assay type: biochemical; details: read-out: BACE1 FRET assay
In short: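 First, compound and enzyme sit in 0.05 M acetate (pH 4.2, 10% DMSO final, 100 uM nonionic genapol). Next, 50 nM quenched FRET peptide starts the reaction for one hour. Last, Tris neutralises the mixture before fluorescence is measured.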

T1 sequence (P56817 46-501, species assumed): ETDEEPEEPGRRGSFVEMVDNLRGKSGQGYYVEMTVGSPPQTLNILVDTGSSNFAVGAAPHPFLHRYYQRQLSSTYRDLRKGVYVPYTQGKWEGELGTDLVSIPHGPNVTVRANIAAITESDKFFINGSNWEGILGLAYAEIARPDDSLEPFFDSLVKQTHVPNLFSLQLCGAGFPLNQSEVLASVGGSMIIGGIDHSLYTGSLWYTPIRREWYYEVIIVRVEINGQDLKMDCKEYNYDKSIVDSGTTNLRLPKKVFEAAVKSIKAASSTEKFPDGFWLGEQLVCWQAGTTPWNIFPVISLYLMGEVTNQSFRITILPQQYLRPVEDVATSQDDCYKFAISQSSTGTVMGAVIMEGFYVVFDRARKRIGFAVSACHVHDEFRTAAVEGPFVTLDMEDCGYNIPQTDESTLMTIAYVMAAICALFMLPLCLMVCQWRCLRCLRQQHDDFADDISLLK

| pIC50 (BACE1 [1]) | pIC50 (BACE1 [2]) | SMILES |
| --- | --- | --- |
| < 5.30 | 5.30 to 6.00 | COC(C)(C)C#Cc1cnc2c(c1)[C@@]1(COC(N)=N1)c1cc(-c3cnccn3)ccc1O2 [compound 694] |
| 6.00 to 7.00 | > 7.00 | NC1=N[C@@]2(CO1)c1cc(-c3cccnc3)ccc1Oc1cnc(CCC3CC3)cc12 [compound 695] |
| > 7.00 | > 7.00 | NC1=N[C@@]2(CO1)c1cc(-c3cccnc3)ccc1Oc1cnc([C@@H]3CCCCO3)cc12 [compound 696] |
| 5.30 to 6.00 | 6.00 to 7.00 | CC(C)(C)C#Cc1ccc2c(c1)[C@]1(COC(N)=N1)c1nc(-c3cccnc3)ccc1O2 [compound 697] |
| > 7.00 | > 7.00 | C[C@](O)(C#Cc1ccc2c(c1)[C@]1(COC(N)=N1)c1cc(-c3cccnc3)ccc1O2)C(F)(F)F [compound 698] |
| 5.30 to 6.00 | 6.00 to 7.00 | COC(C)(C)C#Cc1cnc2c(c1)[C@@]1(COC(N)=N1)c1cc(-c3cncc(F)c3)ccc1O2 [compound 699] |
| < 5.30 | 6.00 to 7.00 | CC(C)(C)COc1ccc2c(c1)[C@]1(COC(N)=N1)c1cc(C3CC4CCC3C4)ccc1O2 (some centres unmarked) [compound 700] |
| 5.30 to 6.00 | > 7.00 | CC(C)(C)COc1ccc2c(c1)[C@]1(COC(N)=N1)c1cc(C3CCCC3)ccc1O2 [compound 701] |
| 6.00 to 7.00 | > 7.00 | CC(C)(C)COc1ccc2c(c1)[C@]1(COC(N)=N1)c1cc(C(=O)NC3CCC3)ccc1O2 [compound 702] |
| > 7.00 | > 7.00 | CC(C)NC(=O)c1ccc2c(c1)[C@@]1(COC(N)=N1)c1cc(OCC(C)(C)C)ccc1O2 [compound 703] |
| 6.00 to 7.00 | 6.00 to 7.00 | Cc1noc(C)c1-c1ccc2c(c1)[C@]1(COC(N)=N1)c1cc(-c3cccnc3)ccc1O2 [compound 704] |
| < 5.30 | < 5.30 | CC(C)(O)C#Cc1cnc2c(c1)[C@@]1(COC(N)=N1)c1cc(C#CC3CC3)ccc1O2 [compound 705] |
| 6.00 to 7.00 | 6.00 to 7.00 | CC(C)(C)OC(=O)Cc1ccc2c(c1)[C@]1(COC(N)=N1)c1cc(-c3cccnc3)ccc1O2 [compound 706] |
| < 5.30 | < 5.30 | CC(C)(C)OC(=O)Cc1ccc2c(c1)[C@]1(COC(N)=N1)c1cc(Br)ccc1O2 [compound 707] |
| 6.00 to 7.00 | > 7.00 | CC(C)Cn1cc(-c2ccc3c(c2)[C@]2(COC(N)=N2)c2cc(-c4cccnc4)ccc2O3)cn1 [compound 708] |
| < 5.30 | 5.30 to 6.00 | CC(C)(O)C#Cc1cnc2c(c1)[C@@]1(COC(N)=N1)c1cc(-c3ccccc3)ccc1O2 [compound 709] |
| > 7.00 | > 7.00 | Cn1cc(-c2ccc3c(c2)[C@]2(COC(N)=N2)c2cc(-c4cccnc4)ccc2O3)cn1 [compound 710] |
| 6.00 to 7.00 | > 7.00 | COc1ccc(-c2ccc3c(c2)[C@]2(COC(N)=N2)c2cc(-c4cccnc4)ccc2O3)o1 [compound 711] |
| > 7.00 | > 7.00 | CC1(COc2cc3c(cc2F)Oc2ccc(-c4cncnc4)cc2[C@@]32COC(N)=N2)COC1 [compound 712] |
| 6.00 to 7.00 | 6.00 to 7.00 | CC1(COc2cc3c(cc2F)Oc2ccc(-c4cncnc4)cc2[C@]32COC(N)=N2)COC1 [compound 713] |

| pIC50 (BACE1 [1]) | pIC50 (BACE1 [2]) | SMILES |
| --- | --- | --- |
| > 7.00 | > 7.00 | NC1=N[C@]2(CO1)c1cc(C3=CCOCC3)ccc1Oc1ccc(-c3cccnc3)cc12 [compound 715] |
| 5.30 to 6.00 | 5.30 to 6.00 | NC1=N[C@]2(CO1)c1cc(-c3ccc(F)nc3)ccc1Oc1ncc(C3=CCOCC3)cc12 [compound 716] |
| 5.30 to 6.00 | 5.30 to 6.00 | NC1=N[C@]2(CO1)c1cc(-c3ccccc3)ccc1Oc1ncc(C3=CCOCC3)cc12 [compound 718] |
| 6.00 to 7.00 | 6.00 to 7.00 | COC(C)(C)C#Cc1cnc2c(c1)[C@@]1(COC(N)=N1)c1cc(-c3cccnc3)ccc1O2 [compound 719] |
| > 7.00 | > 7.00 | CC(C)(C)COc1ccc2c(c1)[C@]1(CSC(N)=N1)c1cc(-c3cncnc3)ccc1O2 [compound 720] |
| 5.30 to 6.00 | > 7.00 | CC(C)(C)COc1ccc2c(c1)[C@@]1(CSC(N)=N1)c1cc(-c3cncnc3)ccc1O2 [compound 721] |
| > 7.00 | > 7.00 | COC(=O)c1ccc(-c2ccc3c(c2)[C@]2(COC(N)=N2)c2cc(-c4cccnc4)ccc2O3)s1 [compound 722] |
| 5.30 to 6.00 | 6.00 to 7.00 | COC(C)(C)C#Cc1cnc2c(c1)[C@@]1(COC(N)=N1)c1cc(-c3ccc(F)nc3)ccc1O2 [compound 723] |
| 6.00 to 7.00 | > 7.00 | CCOC(=O)c1ccc(-c2ccc3c(c2)[C@]2(COC(N)=N2)c2cc(-c4cccnc4)ccc2O3)o1 [compound 725] |
| 6.00 to 7.00 | > 7.00 | Cc1csc(-c2ccc3c(c2)[C@]2(COC(N)=N2)c2cc(-c4cccnc4)ccc2O3)c1 [compound 726] |
| < 5.30 | 5.30 to 6.00 | NC1=NC2(CO1)c1cnc(Cl)cc1Oc1ccc(-c3cccnc3)cc12 (centres unmarked) [compound 727] |
| > 7.00 | > 7.00 | NC1=N[C@@]2(CO1)c1cc(-c3cccnc3)ccc1Oc1cnc(/C=C/C3CC3)cc12 [compound 728] |
| > 7.00 | > 7.00 | NC1=N[C@@]2(CO1)c1cc(-c3cccnc3)ccc1Oc1cnc(C3=CCCCO3)cc12 [compound 729] |
| 5.30 to 6.00 | > 7.00 | CC(C)(C)COc1ccc2c(c1)[C@]1(COC(N)=N1)c1cc(C3=CC4CCC3C4)ccc1O2 (some centres unmarked) [compound 730] |
| 5.30 to 6.00 | 6.00 to 7.00 | CC(C)(C)COc1ccc2c(c1)[C@]1(COC(N)=N1)c1cc(C3=CCCC3)ccc1O2 [compound 731] |
| 5.30 to 6.00 | 5.30 to 6.00 | CC(C)(C)COc1ccc2c(n1)[C@@]1(COC(N)=N1)c1cc(-c3cncnc3)ccc1O2 [compound 732] |
| > 7.00 | > 7.00 | CC(C)(C)COc1ccc2c(n1)[C@]1(COC(N)=N1)c1cc(-c3cncnc3)ccc1O2 [compound 733] |
| < 5.30 | < 5.30 | CC(C)(C)COc1ccc2c(n1)[C@@]1(COC(N)=N1)c1cc(Br)ccc1O2 [compound 734] |
| 5.30 to 6.00 | 5.30 to 6.00 | CC(C)(C)COc1ccc2c(n1)[C@]1(COC(N)=N1)c1cc(Br)ccc1O2 [compound 735] |
| < 5.30 | 5.30 to 6.00 | CC(C)(C)COc1ccc2c(n1)[C@@]1(COC(N)=N1)c1cc(Br)ccc1O2 [compound 736] |

| pIC50 (BACE1 [1]) | pIC50 (BACE1 [2]) | SMILES |
| --- | --- | --- |
| 6.00 to 7.00 | > 7.00 | CC(C)(C)COc1ccc2c(c1)[C@]1(COC(N)=N1)c1cc(-c3csc(C(F)F)c3)ccc1O2 [compound 737] |
| 5.30 to 6.00 | 6.00 to 7.00 | Cc1cscc1-c1ccc2c(c1)[C@@]1(COC(N)=N1)c1cc(OCC(C)(C)C)ccc1O2 [compound 738] |
| 5.30 to 6.00 | 6.00 to 7.00 | Cc1occc1-c1ccc2c(c1)[C@@]1(COC(N)=N1)c1cc(OCC(C)(C)C)ccc1O2 [compound 739] |
| > 7.00 | > 7.00 | CC(C)(C)COc1ccc2c(c1)[C@@]1(COC(N)=N1)c1cc(-c3ccc(OCC(F)(F)F)nc3)cnc1O2 [compound 740] |
| > 7.00 | > 7.00 | CC(C)(C)COc1ccc2c(c1)[C@@]1(COC(N)=N1)c1cc(-c3ccc(OCC4CC4)nc3)cnc1O2 [compound 741] |
| > 7.00 | > 7.00 | NC1=N[C@@]2(CO1)c1cc(-c3cncnc3)ccc1Oc1ncc(C#CC3CC3)cc12 [compound 742] |
| > 7.00 | > 7.00 | CC(C)C#Cc1cnc2c(c1)[C@]1(COC(N)=N1)c1cc(-c3cncnc3)ccc1O2 [compound 743] |
| 6.00 to 7.00 | > 7.00 | CC1(COc2ccc3c(c2)[C@]2(COC(N)=N2)c2cc(-c4ccccc4F)cnc2O3)COC1 [compound 746] |
| 5.30 to 6.00 | 6.00 to 7.00 | CC(C)(C)COc1ccc2c(c1)[C@]1(COC(N)=N1)c1cc(C3CCOCC3)ccc1O2 [compound 747] |
| > 7.00 | > 7.00 | CC1(C)CC(=O)N(c2ccc3c(c2)[C@]2(COC(N)=N2)c2cc(-c4cccnc4)ccc2O3)C1 [compound 749] |
| 6.00 to 7.00 | > 7.00 | CC(C)(C)COc1ccc2c(c1)[C@]1(COC(N)=N1)c1cc(-c3cccnc3)ncc1O2 [compound 750] |
| < 5.30 | 6.00 to 7.00 | NC1=N[C@]2(CO1)c1cc(CC(=O)O)ccc1Oc1ccc(-c3cncnc3)cc12 [compound 751] |
| > 7.00 | > 7.00 | CC(C)(C)COc1ccc2c(c1)[C@@]1(COC(N)=N1)c1cc(-c3ccnc(F)c3)cnc1O2 [compound 752] |
| > 7.00 | > 7.00 | CC(C)(C)COc1ccc2c(c1)[C@@]1(COC(N)=N1)c1cc(-c3cncc(F)c3)cnc1O2 [compound 753] |
| 6.00 to 7.00 | > 7.00 | CC(C)(C)COc1ccc2c(c1)[C@]1(COC(N)=N1)c1cc(C3CC3(C)C)ccc1O2 (some centres unmarked) [compound 754] |
| 5.30 to 6.00 | 6.00 to 7.00 | CC(C)(C)COc1ccc2c(c1)[C@]1(COC(N)=N1)c1cc(C3=CCOCC3)ccc1O2 [compound 755] |
| 5.30 to 6.00 | 6.00 to 7.00 | NC1=N[C@]2(CO1)c1cc(C3=CCOCC3)ccc1Oc1ccc(C3CC3)cc12 [compound 756] |
| 6.00 to 7.00 | 6.00 to 7.00 | NC1=NC2(CO1)c1cc(C3=CCOCC3)ccc1Oc1ccc(C3=CCOCC3)cc12 [compound 757] |
| 6.00 to 7.00 | > 7.00 | NC1=N[C@@]2(CO1)c1cc(-c3cccnc3)ccc1Oc1ccc(C3CC3)cc12 [compound 758] |
| 5.30 to 6.00 | 6.00 to 7.00 | CC(C)(C)COc1ccc2c(c1)[C@]1(COC(N)=N1)c1cc(C3CC3)ccc1O2 [compound 759] |

| SMILES | pIC50 (BACE1 [1]) | pIC50 (BACE1 [2]) |
| --- | --- | --- |
| CC(C)N1CC=C(c2ccc3c(c2)[C@]2(COC(N)=N2)c2cc(-c4cncnc4)ccc2O3)CC1 [compound 714] | > 7.00 | 6.00 to 7.00 |
